Reference: ChEMBL document CHEMBL4420074, “Small molecule inhibitors of Dusp6 and uses therefor” (2015)
The source made the active and inactive calls. No cut-off for these calls is given here.

Key:
[1] = Toxicity in (Tg(Dusp6:d2EGFP)pt6) transgenic Zebrafish assessed as induction of embryo death at 10 uM incubated for 24 hrs; parameters: species or system Danio rerio; settings: in vivo, other: incubation
[2] = Toxicity in (Tg(Dusp6:d2EGFP)pt6) transgenic Zebrafish assessed as induction of embryo death at 40 uM incubated for 24 hrs; parameters: species or system Danio rerio; settings: in vivo
[3] = target: T1, Dual specificity protein phosphatase (Danio rerio) (UniProt Q7T2L8); experiment: Inhibition of Dusp6 in (Tg(Dusp6:d2EGFP)pt6) transgenic Zebrafish assessed as activation of FGF signaling at 20 uM treated at 24 hours post fertilization and measured after 6 hrs post dose by d2EGFP fluorescence based assay relative to BCI; parameters: scale not given: the % may be the effect or the level left
T1 sequence (whole entry): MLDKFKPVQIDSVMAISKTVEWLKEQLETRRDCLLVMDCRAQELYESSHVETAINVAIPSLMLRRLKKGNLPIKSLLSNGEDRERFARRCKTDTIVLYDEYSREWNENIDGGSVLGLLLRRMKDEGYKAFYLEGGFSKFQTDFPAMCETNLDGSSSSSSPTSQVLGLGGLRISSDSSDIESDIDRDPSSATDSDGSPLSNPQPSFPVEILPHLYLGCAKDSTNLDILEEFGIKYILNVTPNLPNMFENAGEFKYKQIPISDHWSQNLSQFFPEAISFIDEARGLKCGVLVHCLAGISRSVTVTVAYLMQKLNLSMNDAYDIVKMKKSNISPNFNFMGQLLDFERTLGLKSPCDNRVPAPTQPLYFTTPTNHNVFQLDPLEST

[4] = target: T1, Dual specificity protein phosphatase (Danio rerio); experiment: Inhibition of Dusp6 in (Tg(Dusp6:d2EGFP)pt6) transgenic Zebrafish assessed as activation of FGF signaling at 20 uM by d2EGFP fluorescence based assay
[5] = target: T2, Dual specificity protein phosphatase 6 (Homo sapiens) (UniProt Q16828); experiment: Inhibition of Myc-tagged human Dusp6 expressed in TPA-stimulated human HeLa cells assessed as suppression of Dusp6-induced reduction in ERK phosphorylation at 0.5 to 2 uM by immunostaining based assay; format: cell-based
T2 sequence (whole entry): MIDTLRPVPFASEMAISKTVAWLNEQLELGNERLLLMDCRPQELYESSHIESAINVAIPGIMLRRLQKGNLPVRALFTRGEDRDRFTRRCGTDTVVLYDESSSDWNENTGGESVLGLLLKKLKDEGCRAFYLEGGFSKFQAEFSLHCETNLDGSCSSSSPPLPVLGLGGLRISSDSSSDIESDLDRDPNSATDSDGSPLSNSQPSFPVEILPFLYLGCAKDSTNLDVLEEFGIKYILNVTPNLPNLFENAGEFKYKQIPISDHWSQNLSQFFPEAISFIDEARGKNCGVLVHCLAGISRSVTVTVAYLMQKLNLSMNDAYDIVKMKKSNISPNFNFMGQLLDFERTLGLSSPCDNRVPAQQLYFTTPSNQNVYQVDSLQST

[6] = target: T3, Dual specificity protein phosphatase 1 (Homo sapiens) (UniProt P28562); experiment: Inhibition of Myc-tagged human Dusp1 expressed in TPA-stimulated human HeLa cells assessed as suppression of […] reduction in ERK phosphorylation at 0.5 to 2 uM by immunostaining based assay; format: cell-based
T3 sequence (whole entry): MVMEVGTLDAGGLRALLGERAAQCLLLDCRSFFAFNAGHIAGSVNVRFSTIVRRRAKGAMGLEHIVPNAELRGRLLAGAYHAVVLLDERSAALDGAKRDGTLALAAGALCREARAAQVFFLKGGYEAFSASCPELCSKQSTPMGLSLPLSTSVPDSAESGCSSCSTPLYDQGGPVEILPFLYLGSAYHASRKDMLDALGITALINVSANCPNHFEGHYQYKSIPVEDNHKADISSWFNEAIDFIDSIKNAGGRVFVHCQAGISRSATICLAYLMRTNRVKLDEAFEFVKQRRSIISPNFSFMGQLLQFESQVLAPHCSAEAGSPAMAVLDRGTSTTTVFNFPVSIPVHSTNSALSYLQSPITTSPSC

[7] = target: T2, Dual specificity protein phosphatase 6 (Homo sapiens); experiment: Inhibition of recombinant His-tagged Dusp6 (unknown origin) assessed as suppression of […] dephosphorylation at 100 uM incubated for 60 mins by immunoblotting
[8] = Toxicity in (Tg(Dusp6:d2EGFP)pt6) transgenic Zebrafish assessed as induction of tail necrosis at >10 uM incubated for 24 hrs; parameters: species or system Danio rerio; settings: in vivo
[9] = Toxicity in (Tg(Dusp6:d2EGFP)pt6) transgenic Zebrafish assessed as induction of embryo death at >10 uM incubated for 24 hrs; parameters: species or system Danio rerio; settings: in vivo
[10] = Toxicity in (Tg(Dusp6:d2EGFP)pt6) transgenic Zebrafish assessed as induction of embryo death at 20 uM incubated for 24 hrs; parameters: species or system Danio rerio; settings: in vivo, other: incubation
[11] = target: T1, Dual specificity protein phosphatase (Danio rerio); experiment: Inhibition of Dusp6 in (Tg(Dusp6:d2EGFP)pt6) transgenic Zebrafish assessed as activation of FGF signaling after 2 hrs by d2EGFP fluorescence based assay
[12] = target: T1, Dual specificity protein phosphatase (Danio rerio); experiment: Inhibition of Dusp6 in (Tg(Dusp6:d2EGFP)pt6) transgenic Zebrafish assessed as activation of FGF signaling by measuring increase in ntl expression within notochord and tail bud at 6-somite stage at 10 to 20 uM dosed prior to gastrulation by whole mount in situ hybridization assay; format: organism-based
[13] = target: T1, Dual specificity protein phosphatase (Danio rerio); experiment: Inhibition of Dusp6 in (Tg(Dusp6:d2EGFP)pt6) transgenic Zebrafish assessed as activation of FGF signaling by measuring increase in dusp6 expression at 10 to 20 uM dosed 1 to 10-somite stage by whole mount in situ hybridization assay; format: organism-based
[14] = target: T1, Dual specificity protein phosphatase (Danio rerio); experiment: Inhibition of Dusp6 in (Tg(Dusp6:d2EGFP)pt6) transgenic Zebrafish assessed as activation of FGF signaling by measuring expansion of prospective mid-hindbrain boundary at 10 to 20 uM dosed 1 to 10-somite stage by whole mount in situ hybridization assay; format: organism-based
[15] = target: T1, Dual specificity protein phosphatase (Danio rerio); experiment: Inhibition of Dusp6 in (Tg(Dusp6:d2EGFP)pt6) transgenic Zebrafish assessed as activation of FGF signaling by measuring increase in eng3 expression at 10 to 20 uM dosed 1 to 10-somite stage by whole mount in situ hybridization assay; format: organism-based
[16] = target: T1, Dual specificity protein phosphatase (Danio rerio); experiment: Inhibition of Dusp6 in (Tg(Dusp6:d2EGFP)pt6) transgenic Zebrafish assessed as activation of FGF signaling by measuring expansion of rhombomere-4 and tail bud at 10 to 20 uM dosed 1 to 10-somite stage by whole mount in situ hybridization assay; format: organism-based
[17] = target: T1, Dual specificity protein phosphatase (Danio rerio); experiment: Inhibition of Dusp6 in (Tg(Dusp6:d2EGFP)pt6) transgenic Zebrafish assessed as activation of FGF signaling by measuring increase in krox20 expression at 10 to 20 uM dosed 1 to 10-somite stage by whole mount in situ hybridization assay; format: organism-based
[18] = target: T1, Dual specificity protein phosphatase (Danio rerio); experiment: Inhibition of Dusp6 in (Tg(Dusp6:d2EGFP)pt6) transgenic Zebrafish assessed as activation of FGF signaling by measuring increase in sef expression at 10 to 20 uM by semi-quantitative RT-PCR analysis
[19] = target: T1, Dual specificity protein phosphatase (Danio rerio); experiment: Inhibition of Dusp6 in (Tg(Dusp6:d2EGFP)pt6) transgenic Zebrafish assessed as activation of FGF signaling by measuring increase in spry4 expression at 10 to 20 uM by semi-quantitative RT-PCR analysis
[20] = target: T1, Dual specificity protein phosphatase (Danio rerio); experiment: Inhibition of Dusp6 in (Tg(Dusp6:d2EGFP)pt6) transgenic Zebrafish assessed as activation of FGF signaling at 5 uM by d2EGFP fluorescence based assay
[21] = target: T1, Dual specificity protein phosphatase (Danio rerio); experiment: Inhibition of Dusp6 in (Tg(Dusp6:d2EGFP);ace mutant) transgenic Zebrafish assessed as activation of FGF signaling in mid-hindbrain boundary by d2EGFP fluorescence based assay
[22] = target: T1, Dual specificity protein phosphatase (Danio rerio); experiment: Inhibition of Dusp6 in Zebrafish 1-cell stage embryos assessed as rescue of Zebrafish dusp6-mediated suppression of sef expression at 5 uM
Danio rerio [23] = species: Danio rerio; experiment: Inhibition of exogenous Zebrafish spry4-mediated suppression of sef expression in Zebrafish 1-cell stage embryos at 5 uM; format: functional, organism-based
Danio rerio [24] = species: Danio rerio; experiment: Inhibition of exogenous Zebrafish XFD-mediated suppression of sef expression in Zebrafish 1-cell stage embryos at 5 uM; format: functional, organism-based
[25] = target: T4, Dual specificity protein phosphatase (Danio rerio) (UniProt Q6PBT4); experiment: Inhibition of Dusp5 in Zebrafish 1-cell stage embryos assessed as rescue of Zebrafish dusp5-mediated suppression of sef expression at 5 uM
T4 sequence (whole entry): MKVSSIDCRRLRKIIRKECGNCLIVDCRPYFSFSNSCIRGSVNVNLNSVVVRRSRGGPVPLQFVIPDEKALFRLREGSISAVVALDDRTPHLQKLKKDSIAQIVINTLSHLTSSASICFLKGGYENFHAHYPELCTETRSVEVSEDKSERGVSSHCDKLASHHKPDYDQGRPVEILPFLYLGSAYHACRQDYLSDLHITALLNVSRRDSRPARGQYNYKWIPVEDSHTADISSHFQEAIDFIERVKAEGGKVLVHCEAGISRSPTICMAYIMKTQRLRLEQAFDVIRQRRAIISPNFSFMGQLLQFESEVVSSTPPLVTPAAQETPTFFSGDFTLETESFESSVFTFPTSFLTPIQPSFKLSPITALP

[26] = target: T2, Dual specificity protein phosphatase 6 (Homo sapiens); experiment: Inhibition of Myc-tagged human Dusp6 expressed in TPA-stimulated human HeLa cells assessed as suppression of Dusp6-induced reduction in ERK phosphorylation by immunostaining based assay; format: cell-based
[27] = target: T2, Dual specificity protein phosphatase 6 (Homo sapiens); experiment: Inhibition of recombinant His-tagged Dusp6 (unknown origin) assessed as reduction in basal Dusp6 activity at 100 uM using OMFP substrate by fluorescence based assay
[28] = target: T1, Dual specificity protein phosphatase (Danio rerio); experiment: Inhibition of Dusp6 in Zebrafish assessed as assessed as activation of FGF signaling by measuring reduction in ETSRP expression relative to control
Danio rerio [29] = species: Danio rerio; experiment: Induction of cardiac tissue expansion in Zebrafish embryos exposed to compound at larval stage followed by compound washout in next day and further incubation until embryos reached 56 hpf; format: functional, organism-based
Danio rerio [30] = species: Danio rerio; experiment: Induction of cardiac tissue expansion in Zebrafish embryos exposed to compound at 1 and 8-somite stages followed by compound washout in next day and further incubation until embryos reached 56 hpf; format: functional, organism-based
Danio rerio [31] = species: Danio rerio; experiment: Induction of cardiac tissue expansion in Zebrafish embryos exposed to compound at post 1 and 8-somite stages followed by compound washout in next day and further incubation until embryos reached 56 hpf; format: functional, organism-based
Danio rerio [32] = species: Danio rerio; experiment: (§1) Induction of cardiac tissue expansion in Zebrafish embryos assessed as induction of heart enlargement by measuring increase in VHMC expression exposed to compound at larval stage followed by compound washout in next day and further incubation until embryos reached 56 hpf by in situ hybridization assay; format: functional, organism-based
Danio rerio [33] = species: Danio rerio; experiment: as §1, with “cmlc2” for “VHMC”; format: functional, organism-based
Danio rerio [34] = species: Danio rerio; experiment: Induction of cardiac tissue expansion in ventricular tissue of Zebrafish embryos exposed to compound at larval stage followed by compound washout in next day and further incubation until embryos reached 56 hpf; format: functional, organism-based
[35] = target: Dual specificity protein phosphatase 6 (Homo sapiens) (UniProt Q16828); experiment: Inhibition of recombinant His-tagged Dusp6 (unknown origin) assessed as suppression of […] dephosphorylation at 1 mM incubated for 60 mins by immunoblotting

O=C1/C(=C/c2ccccc2)C(N2CCOCC2)c2ccccc21 (stereo not drawn)
mortality at 24 h, 10 µM [1]: 100%

O=C1/C(=C/c2ccccc2)C(NC2CCCCC2)c2cc(Br)ccc21 (stereo not drawn)
Activity [2]: Non-Toxic

CC(C)(C)OC(=O)N[C@H]1CC[C@H](NC2/C(=C\c3ccccc3)C(=O)c3ccccc32)CC1 (stereo partly drawn)
Activity [3]: inactive

N#Cc1ccc2c(c1)C(NC1CCCCC1)/C(=C\c1ccccc1)C2=O (stereo not drawn)
Activity [3]: inactive

O=C1/C(=C/c2ccccc2)Cc2ccccc21
inhibition [4]: inactive

O=C1CC(NC2CCCCC2)c2ccccc21 (stereo not drawn)
inhibition [4]: inactive | inhibition [5]: inactive | inhibition [6]: inactive | inhibition [7]: inactive

O=C1N[C@H]2[C@H](CS[C@H]2CCCCC(=O)N[C@H]2CC[C@H](NC3/C(=C\c4ccccc4)C(=O)c4ccccc43)CC2)N1 (stereo partly drawn)
Activity [3]: inactive

O=C1/C(=C/c2ccccc2)C(NC2CCCCC2)c2ccccc21 (stereo in doubt; form 1) [listing 1 of 2 here]
Activity [8]: Toxic | Activity [9]: Toxic | mortality at 24 h, 20 µM [10]: 100%

O=C1/C(=C/c2ccccc2)C(NC2CCCCC2)c2ccccc21 (stereo in doubt; form 1) [listing 2 of 2 here]
inhibition [11]: Dose-dependent effect | inhibition [12]: Active | inhibition [13]: Active | inhibition [14]: Active | inhibition [15]: Active | inhibition [16]: Active | inhibition [17]: Active | inhibition [18]: Active | inhibition [19]: Active | inhibition [20]: Active | inhibition [21]: inactive | inhibition [22]: Active | inhibition (Danio rerio [23]): inactive | inhibition (Danio rerio [24]): inactive | inhibition [25]: inactive | inhibition [26]: Active | inhibition [5]: Active | inhibition [6]: Active | inhibition [7]: Active | inhibition [27]: inactive | inhibition [28]: Active | Activity (Danio rerio [29]): Dose-dependent effect | Activity (Danio rerio [30]): Active | Activity (Danio rerio [31]): inactive | Activity (Danio rerio [32]): Active | Activity (Danio rerio [33]): Active | Activity (Danio rerio [34]): Active | Activity [3]: 100%

O=C1/C(=C/c2ccccc2)C(NC2CCCCC2)c2ccccc21 (stereo in doubt; form 2)
Activity [3]: 82%

SODIUM ORTHOVANAD
inhibition [35]: Active
